Measurements as given in US20050245399A1, “Pyrazole derivatives as herbicidal compositions containing them” (ISHIHARA SANGYO KAISHA, LTD., priority 2004, published 2005).

How the values were obtained:
Assay type in all cases: in vivo
[1] = test system: crabgrass (Digitaria sanguinalis L.): DIGSA; assay: Test Example 1 pre-emergence herbicidal activity, DIGSA; conditions: Rate 63 g a.i./ha, visually observed 20th to 23rd day after application
Procedure, shortened: (§1)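 pots, upland field soil; sow; +1 d spray compound (WP or EC, a.i. at set dose, 500 L/ha water), pre-emergence; visual % growth control d20–23 (0 untreated, 100 complete kill).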

[2] = test system: japanese bulrush (Scirpus juncoides: SCPJO); assay: Test Example 3 water application herbicidal activity (paddy), SCPJO; conditions: 63 g a.i./ha, water application under submerged condition at 0.5 leaf stage, visually observed 14th day after application; 0 = untreated control, 100 = complete kill
Procedure, shortened: (§2)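 Submerged application in flooded paddy soil (3–4 cm water); weeds treated at 0.5-leaf stage, transplanted rice 4 d after transplanting. Scored visually as % growth control: weeds at 14 d, rice at 21 d.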

[3] = test system: barnyardgrass (Echinochiloa oryzicola: ECHOR); assay: Test Example 3 water application herbicidal activity (paddy), ECHOR; conditions: 63 g a.i./ha, water application under submerged condition at 0.5 leaf stage, visually observed 14th day after application; 0 = untreated control, 100 = complete kill
Procedure, shortened: as §2

[4] = test system: rice (Oryza sativa L.): ORYSA; assay: Test Example 1 pre-emergence herbicidal activity, ORYSA; conditions: Rate 63 g a.i./ha, visually observed 20th to 23rd day after application
Procedure, shortened: as §1

[5] = test system: rice (Oryza sativa L.: ORYSA); assay: Test Example 3 water application herbicidal activity (paddy), transplanted rice ORYSA; conditions: 63 g a.i./ha, water application 4th day after transplantation of 2 leaf stage rice, visually observed 21st day after application; 0 = untreated control, 100 = complete kill
Procedure, shortened: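 Rice at 2-leaf stage is transplanted into flooded puddled soil and treated by water application 4 days later, at a predetermined active-ingredient dose. Crop injury is rated visually as growth control (0–100%) 21 days after treatment.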

[6] = test system: velvetleaf (Abutilon theophrasti): ABUTH; assay: Test Example 1 pre-emergence herbicidal activity, ABUTH; conditions: Rate 63 g a.i./ha, visually observed 20th to 23rd day after application
Procedure, shortened: as §1

[7] = test system: redroot pigweed (Amaranthus retroflexus L.), AMARE; assay: Test Example 2 post-emergence (foliage treatment) herbicidal activity, AMARE
Procedure, shortened: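 Herbicide was applied to foliage of seedlings raised in upland field soil: redroot pigweed at 0.1-1.5 leaves, barnyardgrass at 1.1-2.1, crabgrass at 1.0-2.0, rice at 1.0-2. A predetermined active ingredient amount was carried in 500 L/ha water with 0.1% (v/v) spreader; control (%) was assessed by eye after 20-23 days.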

[8] = test system: green foxtail (Setaria viridis L.): SETVI; assay: Test Example 1 pre-emergence herbicidal activity, SETVI; conditions: Rate 63 g a.i./ha, visually observed 20th to 23rd day after application
Procedure, shortened: as §1

[9] = test system: japanese ribbon wapato (Sagittaria pygmaea: SA GPY); assay: Test Example 3 water application herbicidal activity (paddy), SAGPY; conditions: 63 g a.i./ha, water application under submerged condition, tubers planted, visually observed 14th day after application; 0 = untreated control, 100 = complete kill
Procedure, shortened: as §2

[10] = test system: soybean (Glycine max Merr.): GLXMA; assay: Test Example 1 pre-emergence herbicidal activity, GLXMA; conditions: Rate 63 g a.i./ha, visually observed 20th to 23rd day after application
Procedure, shortened: as §1

[11] = test system: corn (Zea mays L.), ZEAMX; assay: Test Example 2 post-emergence (foliage treatment) herbicidal activity, ZEAMX
Procedure, shortened: (§3)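 A small sprayer delivered the diluted WP or EC formulation (500 L/ha water, 0.1% v/v spreader) over emerged seedlings in upland soil pots. Damage relative to untreated plants was graded visually from 0 to 100% three weeks or so later (days 20-23).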

[12] = test system: wheat (Triticum aestivum L.), TRZAX; assay: Test Example 2 post-emergence (foliage treatment) herbicidal activity, TRZAX
Procedure, shortened: as §3

[13] = test system: common cocklebur (Xanthium strumarium L.): XANST; assay: Test Example 1 pre-emergence herbicidal activity, XANST; conditions: Rate 63 g a.i./ha, visually observed 20th to 23rd day after application
Description: Upland field soil was put into a 1/170,000 ha pot, and seeds of various plants {1. barnyardgrass (Echinochloa crus-galli L.): ECHCG, 2. crabgrass (Digitaria sanguinalis L.): DIGSA, 3. green foxtail (Setaria viridis L.): SETVI, 4. redroot pigweed (Amaranthus retroflexus L.): AMARE, 5. prickly sida (Sida spinosa L.): SEDSP, 6. velvetleaf (Abutilon theophrasti): ABUTH, 7. common cocklebur (Xanthium strumarium L.): XANST, 8. rice (Oryza sativa L.): ORYSA, 9. wheat (Triticum aestivum L.): TRZAX, 10. corn (Zea mays L.): ZEAMX, 11. soybean (Glycine max Merr.): GLXMA} were sown. Then, one day after the sowing, a wettable powder or emulsifiable concentrate having the compound of the present invention formulated in accordance with a usual formulation method, was weighed so that the active ingredient would be a predetermined amount and diluted with water in an amount of 500 L/ha. The herbicide adjusted was applied by a small size sprayer for preemergence treatment. On the 20th to 23rd day after the application of the herbicide, the growth of the respective plants was visually observed, and the herbicidal effects were evaluated by growth controlling degrees (%) ranging from 0 (equivalent to the untreated control) to 100 (complete kill), whereby the results shown in Table 4, were obtained. Compound Nos. in Table 4 correspond to Compound Nos. in Table 1 and 2 given hereinbefore.

| Structure (SMILES) | Pre-emergence Herbicidal Activity DIGSP (growth controlling degree) [1] | growth controlling degrees (%) SCPJO [2] | growth controlling degrees (%) ECHOR [3] | Pre-emergence Herbicidal Activity ORYSA (growth controlling degree) [4] | growth controlling degrees (%) ORYSA [5] | Pre-emergence Herbicidal Activity ABUTH (growth controlling degree) [6] | growth controlling degree, AMARE ([7]; 63 g a.i./ha) | Pre-emergence Herbicidal Activity SETVI (growth controlling degree) [8] | growth controlling degrees (%) SAGPY [9] | Pre-emergence Herbicidal Activity GLXMA (growth controlling degree) [10] | growth controlling degree, ZEAMX ([11]; 63 g a.i./ha) | growth controlling degree, TRZAX ([12]; 63 g a.i./ha) | Pre-emergence Herbicidal Activity XANST (growth controlling degree) [13] | growth controlling degree, AMARE ([7]; 125 g a.i./ha) | growth controlling degree, ZEAMX ([11]; 125 g a.i./ha) | growth controlling degree, TRZAX ([12]; 125 g a.i./ha) |
| --- | --- | --- | --- | --- | --- | --- | --- | --- | --- | --- | --- | --- | --- | --- | --- | --- |
| COc1c(Cl)cc(F)c(-c2nn(C)c(OC(F)F)c2Cl)c1NC(C)C [Compound 1-59] | 100% | 80% | 100% | 50% | 40% | 95% | 100% | 100% | 60% | 30% | 80% | 50% |  |  |  |  |
| COc1c(Cl)cc(F)c(-c2nn(C)c(OC(F)F)c2Cl)c1N(C=O)CC(=O)c1ccc(Cl)cc1 [Compound 1-13] | 70% | 40% | 95% | 70% | 10% | 100% | 100% | 90% | 0% | 50% | 40% | 30% | 50% |  |  |  |
| Cn1nc(-c2c(F)cc(Cl)c(OC(F)F)c2N)c(Cl)c1OC(F)F [Compound 1-81, 3-chloro-6-[4-chloro-5-(difluoromethoxy)-1-methyl-1H-pyrazol-3-yl]-2-(difluoromethoxy)-5-fluorobenzenamine] | 100% | 100% | 100% | 20% | 35% | 100% |  | 100% | 95% | 20% |  |  | 60% | 100% | 90% | 100% |
| COc1c(Cl)cc(F)c(-c2nn(C)c(OC(F)F)c2Cl)c1N(C=O)CC(C)=O [Compound 1-14] | 98% | 90% | 100% | 40% | 50% | 100% | 100% | 100% | 98% | 60% | 40% | 40% | 100% |  |  |  |
| COc1c(Cl)cc(F)c(-c2nn(C)c(OC(F)F)c2Cl)c1N(C=O)C1CCCC1 [Compound 1-10] | 60% | 40% | 100% | 70% | 10% | 100% | 100% | 100% | 40% | 50% | 40% | 40% | 100% |  |  |  |
